Measurements published in paper PMC11435058, “Synthesis of New Thiazole-Privileged Chalcones as Tubulin Polymerization Inhibitors with Potential Anticancer Activities” (Pharmaceuticals, 2024).

Key:
SF-295 = assay: NCI-60 anticancer screen (SRB; single dose and five doses); details: Homo sapiens; for activity at 10 µM: SF-295, 48 h, read-out: Growth Percentage; for CC50: SF-295, read-out: LC50; for IC (TGI): SF-295, read-out: TGI
M14 = assay: NCI-60 anticancer screen (SRB; single dose and five doses); details: Homo sapiens; for activity at 10 µM: M14, 48 h, read-out: Growth Percentage; for IC (TGI): M14, read-out: TGI
TK-10 = assay: as above; details: Homo sapiens; for activity at 10 µM: TK-10, 48 h, read-out: Growth Percentage; for CC50: TK-10, read-out: LC50; for IC (TGI): TK-10, read-out: TGI
SF-539 = assay: as above; details: Homo sapiens; for activity at 10 µM: SF-539, 48 h, read-out: Growth Percentage; for IC (TGI): SF-539, read-out: TGI
CCRF-CEM = assay: NCI-60 anticancer screen (SRB; single dose 10 μM and five doses); details: Homo sapiens; for activity at 10 µM: 48 h, read-out: Growth Percentage; for IC (TGI): read-out: TGI
NCI-H23 = assay: NCI-60 anticancer screen (SRB; single dose and five doses); details: Homo sapiens; for activity at 10 µM: NCI-H23, 48 h, read-out: Growth Percentage; for CC50: NCI-H23, read-out: LC50; for IC (TGI): NCI-H23, read-out: TGI
HCT-15 = assay: as above; details: Homo sapiens; for activity at 10 µM: HCT-15, 48 h, read-out: Growth Percentage; for CC50: HCT-15, read-out: LC50; for IC (TGI): HCT-15, read-out: TGI

## Cc1[nH]c(=S)sc1C(=O)/C=C/c1ccccc1 [2a, (E)-1-(4-Methyl-2-Thioxo-2,3-Dihydrothiazol-5-yl)-3-Phenylprop-2-En-1-One]
SF-295
  activity at 10 µM: 88.9%
other
  melting point: 245 to 247 °C
M14
  activity at 10 µM: 77.1%
TK-10
  activity at 10 µM: 80.3%
SF-539
  activity at 10 µM: 41.7%
CCRF-CEM
  activity at 10 µM: 37.2%
NCI-H23
  activity at 10 µM: 77.5%
HCT-15
  activity at 10 µM: 35%

## Cc1[nH]c(=S)sc1C(=O)/C=C/c1cccc(F)c1 [2b, (E)-3-(3-Fluorophenyl)-1-(4-Methyl-2-Thioxo-2,3-Dihydrothiazol-5-yl)Prop-2-En-1-One]
SF-295
  activity at 10 µM: 38.4%
other
  melting point: 234 to 236 °C
M14
  activity at 10 µM: 78.5%
SF-539
  activity at 10 µM: 6.17%
CCRF-CEM
  activity at 10 µM: 15.4%
NCI-H23
  activity at 10 µM: 71.1%
HCT-15
  activity at 10 µM: 19.1%

## Cc1[nH]c(=S)sc1C(=O)/C=C/c1ccc(F)cc1 [2c, (E)-3-(4-Fluorophenyl)-1-(4-Methyl-2-Thioxo-2,3-Dihydrothiazol-5-yl)Prop-2-En-1-One]
SF-295; SF-295
  GI50: 12.5 µM
SF-295
  activity at 10 µM: 60.6%
  CC50: 52.9 µM
  IC (TGI): 25.7 µM
M14; M14
  GI50: 6.97 µM
M14
  activity at 10 µM: 49.6%
  IC (TGI): 22.2 µM
TK-10; TK-10
  GI50: 12.5 µM
TK-10
  activity at 10 µM: 40.4%
  CC50: 50.7 µM
  IC (TGI): 25.2 µM
SF-539; SF-539
  GI50: 2940 nM
SF-539
  activity at 10 µM: -4.61%
  IC (TGI): 10.8 µM
CCRF-CEM
  GI50: 3.68 µM
  activity at 10 µM: -0.21%
  IC (TGI): > 100 µM
NCI-H23; NCI-H23
  GI50: 10.6 µM
NCI-H23
  activity at 10 µM: 62.7%
  CC50: 49.9 µM
  IC (TGI): 23 µM
HCT-15; HCT-15
  GI50: 3.27 µM
HCT-15
  activity at 10 µM: 14.7%
  CC50: 43.7 µM
  IC (TGI): 14.2 µM

## Cc1[nH]c(=S)sc1C(=O)/C=C/c1ccccc1Cl [2d, (E)-3-(2-Chlorophenyl)-1-(4-Methyl-2-Thioxo-2,3-Dihydrothiazol-5-yl)Prop-2-En-1-One]
SF-295
  activity at 10 µM: 82.5%
other
  melting point: 240 to 242 °C
M14
  activity at 10 µM: 82.3%
SF-539
  activity at 10 µM: 93.6%
CCRF-CEM
  activity at 10 µM: 46.8%
NCI-H23
  activity at 10 µM: 91.8%
HCT-15
  activity at 10 µM: 57.4%

## Cc1[nH]c(=S)sc1C(=O)/C=C/c1ccc(Cl)cc1 [2f, (E)-3-(4-Chlorophenyl)-1-(4-Methyl-2-Thioxo-2,3-Dihydrothiazol-5-yl)Prop-2-En-1-One]
SF-295; SF-295
  GI50: 15.8 µM
  IC50: 28.8 µM
SF-295
  activity at 10 µM: 42.6%
  CC50: 55 µM
  IC (TGI): 29.5 µM
M14; M14
  GI50: 14.1 µM
  IC50: 24.6 µM
M14
  activity at 10 µM: 34.4%
  IC (TGI): 32.4 µM
TK-10; TK-10
  GI50: 15.1 µM
  IC50: 28.2 µM
TK-10
  activity at 10 µM: 40.4%
  CC50: 55 µM
  IC (TGI): 28.8 µM
SF-539; SF-539
  GI50: 6920 nM
  IC50: 16.2 µM
SF-539
  activity at 10 µM: -30.4%
  IC (TGI): 20.4 µM
CCRF-CEM
  GI50: 2.88 µM
  activity at 10 µM: 3.18%
  IC (TGI): 11.2 µM
CCRF-CEM; five doses
  IC50: 2.88 µM
CCRF-CEM; five-dose, Leukemia CCRF-CEM
  IC50: 3.98 µM
NCI-H23; NCI-H23
  GI50: 14.8 µM
  IC50: 26.9 µM
NCI-H23
  activity at 10 µM: 36.4%
  CC50: 58.9 µM
  IC (TGI): 29.5 µM
HCT-15; HCT-15
  GI50: 4.07 µM
  IC50: 5.37 µM
HCT-15
  activity at 10 µM: -19.8%
  CC50: 49 µM
  IC (TGI): 16.6 µM

## Cc1[nH]c(=S)sc1C(=O)/C=C/c1ccc([N+](=O)[O-])cc1 [2i, (E)-1-(4-Methyl-2-Thioxo-2,3-Dihydrothiazol-5-yl)-3-(4-Nitrophenyl)Prop-2-En-1-One]
SF-295; SF-295
  GI50: 16.1 µM
SF-295
  activity at 10 µM: 86.1%
  CC50: 56.5 µM
  IC (TGI): 30.2 µM
M14; M14
  GI50: 12.2 µM
M14
  activity at 10 µM: 69.5%
  IC (TGI): 28.4 µM
TK-10; TK-10
  GI50: 12.4 µM
TK-10
  activity at 10 µM: 12.9%
  CC50: 51.3 µM
  IC (TGI): 25.3 µM
SF-539; SF-539
  GI50: 2310 nM
SF-539
  activity at 10 µM: -25.2%
  IC (TGI): 7.02 µM
CCRF-CEM
  GI50: 4.56 µM
  activity at 10 µM: -7.25%
  IC (TGI): > 100 µM
NCI-H23; NCI-H23
  GI50: 12.2 µM
NCI-H23
  activity at 10 µM: 49.2%
  CC50: 52.6 µM
  IC (TGI): 25.3 µM
HCT-15; HCT-15
  GI50: 2.46 µM
HCT-15
  activity at 10 µM: -62.1%
  CC50: 33.7 µM
  IC (TGI): 7.86 µM

## Cc1ccc(/C=C/C(=O)c2sc(=S)[nH]c2C)cc1 [2j, (E)-1-(4-Methyl-2-Thioxo-2,3-Dihydrothiazol-5-yl)-3-(p-Tolyl)Prop-2-En-1-One]
SF-295
  activity at 10 µM: 83.4%
other
  melting point: 241 to 243 °C
M14
  activity at 10 µM: 83%
TK-10
  activity at 10 µM: 79.8%
SF-539
  activity at 10 µM: 43%
CCRF-CEM
  activity at 10 µM: 24.6%
NCI-H23
  activity at 10 µM: 68.5%
HCT-15
  activity at 10 µM: 38.6%

## Cc1[nH]c(=S)sc1C(=O)/C=C/c1ccc(N(C)C)cc1 [2k, (E)-3-(4-(Dimethylamino)Phenyl)-1-(4-Methyl-2-Thioxo-2,3-Dihydrothiazol-5-yl)Prop-2-En-1-One]
SF-295
  activity at 10 µM: 79.8%
other
  melting point: 249 to 251 °C
M14
  activity at 10 µM: 83.2%
TK-10
  activity at 10 µM: 86.8%
SF-539
  activity at 10 µM: 88.7%
CCRF-CEM
  activity at 10 µM: 68.5%
NCI-H23
  activity at 10 µM: 71.1%
HCT-15
  activity at 10 µM: 64.4%

## COc1ccc(/C=C/C(=O)c2sc(=S)[nH]c2C)cc1 [2l, (E)-3-(4-Methoxyphenyl)-1-(4-Methyl-2-Thioxo-2,3-Dihydrothiazol-5-yl)Prop-2-En-1-One]
SF-295
  activity at 10 µM: 83.5%
other
  melting point: 246 to 248 °C
M14
  activity at 10 µM: 87.5%
TK-10
  activity at 10 µM: 80.9%
SF-539
  activity at 10 µM: 69.8%
CCRF-CEM
  activity at 10 µM: 59%
NCI-H23
  activity at 10 µM: 81.8%
HCT-15
  activity at 10 µM: 50.8%

## COc1cccc(/C=C/C(=O)c2sc(=S)[nH]c2C)c1OC [2m, (E)-3-(2,3-Dimethoxyphenyl)-1-(4-Methyl-2-Thioxo-2,3-Dihydrothiazol-5-yl)Prop-2-En-1-One]
SF-295
  activity at 10 µM: 26.3%
other
  melting point: 239 to 240 °C
M14
  activity at 10 µM: 54%
TK-10
  activity at 10 µM: 64.5%
SF-539
  activity at 10 µM: 22.7%
CCRF-CEM
  activity at 10 µM: 12.4%
NCI-H23
  activity at 10 µM: 86.5%
HCT-15
  activity at 10 µM: 32.7%

## COc1ccc(/C=C/C(=O)c2sc(=S)[nH]c2C)c(OC)c1 [2n, (E)-3-(2,4-Dimethoxyphenyl)-1-(4-Methyl-2-Thioxo-2,3-Dihydrothiazol-5-yl)Prop-2-En-1-One]
SF-295
  activity at 10 µM: 72.5%
other
  melting point: 255 to 257 °C
M14
  activity at 10 µM: 75.8%
TK-10
  activity at 10 µM: 94.1%
SF-539
  activity at 10 µM: 87.3%
CCRF-CEM
  activity at 10 µM: 53.7%
NCI-H23
  activity at 10 µM: 72.9%
HCT-15
  activity at 10 µM: 45.8%

## COc1ccc(/C=C/C(=O)c2sc(=S)[nH]c2C)cc1OC [2o, (E)-3-(3,4-Dimethoxyphenyl)-1-(4-Methyl-2-Thioxo-2,3-Dihydrothiazol-5-yl)Prop-2-En-1-One]
SF-295
  activity at 10 µM: 66.5%
other
  melting point: 245 to 247 °C
M14
  activity at 10 µM: 82.2%
TK-10
  activity at 10 µM: 75.4%
SF-539
  activity at 10 µM: 29.8%
CCRF-CEM
  activity at 10 µM: 15.5%
NCI-H23
  activity at 10 µM: 65.1%
HCT-15
  activity at 10 µM: 31.3%
